Results on one molecule are retold here after article PMC8146336, “The Mechanisms of Thiosulfate Toxicity against Saccharomyces cerevisiae” (Antioxidants, 2021).

The assay addresses T1, cytochrome c oxidase (Saccharomyces cerevisiae, UniProt P00401+P00410).
T1 construct: gene COX1; native complex IV in whole sulfur-starved yeast cells; not purified; with Cytochrome c oxidase subunit 3; Cytochrome c oxidase subunit 4, mitochondrial; Cytochrome c oxidase subunit 5A, mitochondrial; Cytochrome c oxidase subunit 6, mitochondrial; Cytochrome c oxidase subunit 7, mitochondrial; Cytochrome c oxidase subunit 8, mitochondrial; Cytochrome c oxidase subunit 9, mitochondrial; Cytochrome c oxidase subunit 12, mitochondrial; Cytochrome c oxidase subunit 13, mitochondrial
Description: oxygen consumption of whole cells with TMPD/ascorbate as electron donor. The format is cell-based. The settings on record: 10 mM thiosulfate, 12.5 mM ascorbate, 1.4 mM TMPD, PBS, sulfur-starved cells OD600 10; CuB binding only proposed.

As to `O=S(O)(O)=S` [thiosulfate], the “inhibition at 10 mM” value is “In the assay, thiosulfate inhibited cytochrome c oxidase (Figure 5E)”.
